Measurements from US7579369B2, “CB 1 receptor inverse agonists” (Hoffmann-La Roche Inc., priority 2003, dated 2009).
pIC50: −log10 of the molar value.

Target: T1, human cannabis CB1 receptor (Homo sapiens, UniProt P21554)
T1 construct: expressed in transfected cells; host or cells: human embryonic kidney (HEK) cells, Semliki Forest Virus system, membrane preparation
Test: Affinity for cannabinoid CB1 receptors, [3H]-CP-55,940 radioligand binding on HEK cell membranes
Conditions: affinity for the CB1 receptor
Experimental: The affinity of the compounds of the invention for cannabinoid CB1 receptors was determined using membrane preparations of human embryonic kidney (HEK) cells in which the human cannabis CB1 receptor is transiently transfected using the Semliki Forest Virus system in conjunction with [3H]-CP-55,940 as radioligand. After incubation of a freshly prepared cell membrane preparation with the [3H]-ligand, with or without addition of compounds of the invention, separation of bound and free ligand was performed by filtration over glassfiber filters. Radioactivity on the filter was measured by liquid scintillation counting.
The compounds of formula (I) show an excellent affinity for the CB1 receptor, determined with the experimental conditions described in Devane et. al. Mol. Pharmacol. 34 (1988) 605-613.

T1 sequence (P21554 whole entry): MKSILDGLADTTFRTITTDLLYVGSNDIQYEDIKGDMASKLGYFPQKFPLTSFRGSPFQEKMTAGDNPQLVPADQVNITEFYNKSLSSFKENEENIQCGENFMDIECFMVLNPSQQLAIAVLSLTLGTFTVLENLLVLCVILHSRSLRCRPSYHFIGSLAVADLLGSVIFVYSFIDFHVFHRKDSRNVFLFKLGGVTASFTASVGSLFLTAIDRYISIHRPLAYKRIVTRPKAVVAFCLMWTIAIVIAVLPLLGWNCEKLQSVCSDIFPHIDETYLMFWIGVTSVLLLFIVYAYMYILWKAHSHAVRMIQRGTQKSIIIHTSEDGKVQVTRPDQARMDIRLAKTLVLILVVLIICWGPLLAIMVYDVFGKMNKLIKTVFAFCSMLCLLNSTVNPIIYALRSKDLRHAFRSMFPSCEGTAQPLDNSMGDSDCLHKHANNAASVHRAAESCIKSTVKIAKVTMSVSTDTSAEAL

Structure (SMILES)	pIC50
Cc1c(C(=O)NC2CCCCC2)cc(-c2cc(C(F)(F)F)ccc2F)n1C[C@@H]1CCCC[C@H]1O (racemic) [Example 282, 5-(2-Fluoro-5-trifluoromethyl-phenyl)-1-((1SR,2RS)-2-hydroxy-cyclohexylmethyl)-2-methyl-1H-pyrrole-3-carboxylic acid cyclohexylamide]	> 5.70
Cc1c(C(=O)NC2CCCCC2)cc(-c2cc(C(F)(F)F)ccc2F)n1C[C@H]1CCCC[C@H]1O (racemic) [Example 283, 5-(2-Fluoro-5-trifluoromethyl-phenyl)-1-((1RS,2RS)-2-hydroxy-cyclohexylmethyl)-2-methyl-1H-pyrrole-3-carboxylic acid cyclohexylamide]	> 5.70
Cc1c(C(=O)N[C@@H]2CCCC[C@H]2O)cc(-c2cc(C(F)(F)F)ccc2F)n1CC1CCCCC1O (mixture of isomers) [Example 286]	> 5.70
Cc1c(C(=O)NC2CCCCC2)cc(-c2cc(C(F)(F)F)ccc2Cl)n1C[C@H]1CCCC[C@H]1O (racemic) [Example 294, 5-(2-Chloro-5-trifluoromethyl-phenyl)-1-((1RS,2RS)-2-hydroxy-cyclohexylmethyl)-2-methyl-1H-pyrrole-3-carboxylic acid cyclohexylamide]	> 5.70
CCCCNC(=O)c1cc(-c2ccc(N3CCCC3)cc2)n(CC2CCCCC2)c1C [Example 19, Cyclohexylmethyl-2-methyl-5-(4-pyrrolidin-1-yl-phenyl)-1H-pyrrole-3-carboxylic acid butylamide]	> 5.70
CCCCNC(=O)c1cc(-c2cc(OC)ccc2OC)n(CC2CCCCC2)c1C [Example 21, Cyclohexylmethyl-5-(2,5-dimethoxy-phenyl)-2-methyl-1H-pyrrole-3-carboxylic acid butylamide]	> 5.70
CCCCNC(=O)c1cc(-c2cc(C(F)(F)F)cc(C(F)(F)F)c2)n(CC2CCCCC2)c1C [Example 41, 5-(3,5-Bis-trifluoromethyl-phenyl)-1-cyclohexylmethyl-2-methyl-1H-pyrrole-3-carboxylic acid butylamide]	> 5.70
CCCCNC(=O)c1nc(-c2ccccc2OC)n(CC2CCCCC2)c1C [Example 52, Cyclohexylmethyl-2-(2-methoxy-phenyl)-5-methyl-1H-imidazole-4-carboxylic acid butylamide]	> 5.70
COc1ccccc1-c1nc(C(=O)NN2CCCCC2)c(C)n1CC1CCCCC1 [Example 54, Cyclohexylmethyl-2-(2-methoxy-phenyl)-5-methyl-1H-imidazole-4-carboxylic acid piperidin-1-ylamide]	> 5.70
COc1ccc(Cl)cc1-c1cc(C(=O)NC2CCCCC2)c(C)n1CC1CCCCC1 [Example 89, 5-(5-Chloro-2-methoxy-phenyl)-1-cyclohexylmethyl-2-methyl-1H-pyrrole-3-carboxylic acid cyclohexylamide]	> 5.70
COc1cc(C)c(Cl)cc1-c1cc(C(=O)NC2CCCCC2)c(C)n1CC1CCCCC1 [Example 91, 5-(5-Chloro-2-methoxy-4-methyl-phenyl)-1-cyclohexylmethyl-2-methyl-1H-pyrrole-3-carboxylic acid cyclohexylamide]	> 5.70
COc1ccc(F)cc1-c1cc(C(=O)NC2CCCCC2)c(C)n1CC1CC1 [Example 194, Cyclopropylmethyl-5-(5-fluoro-2-methoxy-phenyl)-2-methyl-1H-pyrrole-3-carboxylic acid cyclohexylamide]	> 5.70
Cc1c(C(=O)NN2CCCCC2)cc(-c2cc(C(F)(F)F)ccc2Cl)n1CC1CCCCC1 [Example 264, 5-(2-Chloro-5-trifluoromethyl-phenyl)-1-cyclohexylmethyl-2-methyl-1H-pyrrole-3-carboxylic acid piperidin-1-ylamide]	> 5.70
Cc1c(C(=O)N[C@@H]2CCCC[C@H]2O)cc(-c2cc(C(F)(F)F)ccc2C(F)(F)F)n1CCC1CC1 [Example 290, 5-(2,5-Bis-trifluoromethyl-phenyl)-1-(2-cyclopropyl-ethyl)-2-methyl-1H-pyrrole-3-carboxylic acid ((1R,2R)-2-hydroxy-cyclohexyl)-amide]	> 5.70
Cc1ccc(C(F)(F)F)cc1-c1cc(C(=O)N[C@@H]2CCCC[C@H]2O)c(C)n1CC1CCCCC1 [Example 301, Cyclohexylmethyl-2-methyl-5-(2-methyl-5-trifluoromethyl-phenyl)-1H-pyrrole-3-carboxylic acid ((1R,2R)-2-hydroxy-cyclohexyl)-amide]	> 5.70
